According to ChEMBL document CHEMBL1201862, “PubChem BioAssay data set” (2004):
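Method: 48-hour compound exposure of cells in 96-well plates, five concentrations, linear interpolation of endpoints. Here, GI50 denotes the concentration required for 50% inhibition of growth.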 Active and inactive are the calls of the source. Cut-off read from the data, not from the text of the source: active = GI50 up to about 1.1 µM and inactive = higher.

Columns and labels:
Test in all cases: NCI tumour cell line growth inhibition, 48 h
[1] = test system: KM12
[2] = test system: MOLT-4
[3] = test system: SK-MEL-2
[4] = test system: SK-OV-3
[5] = test system: IGROV-1
[6] = test system: SN12C
[7] = test system: HT-29
[8] = test system: UACC-257
[9] = test system: SF-295
[10] = test system: OVCAR-5
[11] = test system: SK-MEL-28
[12] = test system: U-251
[13] = test system: HCT-116
[14] = test system: RPMI-8226
[15] = test system: HCC 2998
[16] = test system: SK-MEL-5
[17] = test system: M19-MEL
[18] = test system: ACHN
[19] = test system: SNB-19
[20] = test system: LXFL 529
[21] = test system: OVCAR-4
[22] = test system: HCT-15
[23] = test system: 786-0
[24] = test system: UACC-62
[25] = test system: SR
[26] = test system: SW-620
[27] = test system: DMS-114
[28] = test system: SNB-75
[29] = test system: HOP-92
[30] = test system: OVCAR-8
[31] = test system: NCI-H226
[32] = test system: SF-268
[33] = test system: TK-10
[34] = test system: KM-20L2
[35] = test system: SNB-78
[36] = test system: UO-31
[37] = test system: Malme-3M
[38] = test system: K562
[39] = test system: EKVX
[40] = test system: SF-539
[41] = test system: RXF 393
[42] = test system: A549
[43] = test system: NCI-H23
[44] = test system: COLO 205
[45] = test system: OVCAR-3
[46] = test system: NCI-H460
[47] = test system: CCRF-CEM
[48] = test system: M14
[49] = test system: MDA-MB-231
[50] = test system: MDA-N
[51] = test system: LOX IMVI
[52] = test system: HL-60
[53] = test system: NCI-H522
[54] = test system: DU-145
[55] = test system: HOP-62
[56] = test system: NCI/ADR-RES
[57] = test system: Hs-578T
[58] = test system: PC-3
[59] = test system: MCF7
[60] = test system: BT-549
[61] = test system: A498
[62] = test system: MDA-MB-435
[63] = test system: CAKI-1
[64] = test system: T47D

**Q.** What does the source list for `O=C(O)CCSCCCN1C(=O)c2ccccc2C1=O`?
**A.** GI50 [1]: > 100 µM (inactive); GI50 [2]: > 100 µM (inactive); GI50 [3]: > 100 µM (inactive); GI50 [4]: > 100 µM (inactive); GI50 [5]: > 100 µM (inactive); GI50 [6]: > 100 µM (inactive); GI50 [7]: > 100 µM (inactive); GI50 [8]: > 100 µM (inactive); GI50 [9]: > 100 µM (inactive); GI50 [10]: > 100 µM (inactive); GI50 [11]: > 100 µM (inactive); GI50 [12]: > 100 µM (inactive); GI50 [13]: > 100 µM (inactive); GI50 [14]: > 100 µM (inactive); GI50 [15]: > 100 µM (inactive); GI50 [16]: > 100 µM (inactive); GI50 [17]: > 100 µM (inactive); GI50 [18]: > 100 µM (inactive); GI50 [19]: > 100 µM (inactive); GI50 [20]: > 100 µM (inactive); GI50 [21]: > 100 µM (inactive); GI50 [22]: > 100 µM; GI50 [23]: > 100 µM (inactive); GI50 [24]: > 100 µM (inactive); GI50 [25]: > 100 µM (inactive); GI50 [26]: > 100 µM (inactive); GI50 [27]: > 100 µM (inactive); GI50 [28]: > 100 µM (inactive); GI50 [29]: > 100 µM (inactive); GI50 [30]: > 100 µM (inactive); GI50 [31]: > 100 µM (inactive); GI50 [32]: > 100 µM (inactive); GI50 [33]: > 100 µM (inactive); GI50 [34]: > 100 µM (inactive); GI50 [35]: > 100 µM (inactive); GI50 [36]: > 100 µM (inactive); GI50 [37]: > 100 µM (inactive); GI50 [38]: > 100 µM (inactive); GI50 [39]: > 100 µM (inactive); GI50 [40]: > 100 µM (inactive); GI50 [41]: > 100 µM (inactive); GI50 [42]: > 100 µM (inactive); GI50 [43]: > 100 µM (inactive); GI50 [44]: > 100 µM (inactive); GI50 [45]: > 100 µM (inactive)

**Q.** How did the GI50 [1] turn out when `O=[N+]([O-])c1cc(CCl)ccc1CCl` was run?
**A.** 1.66 µM (inactive)

**Q.** What about the GI50 [46] of the same compound?
**A.** 3.44 µM (inactive)

**Q.** And the GI50 [47]?
**A.** 0.504 µM (active)

**Q.** And the GI50 [2]?
**A.** 2.1 µM (inactive)

**Q.** What about the GI50 [3] of the same compound?
**A.** 2.72 µM (inactive)

**Q.** And the GI50 [4]?
**A.** 13.3 µM (inactive)

**Q.** And the GI50 [48]?
**A.** 1.74 µM (inactive)

**Q.** And the GI50 [5]?
**A.** 1.56 µM (inactive)

**Q.** What about the GI50 [49] of the same compound?
**A.** 2.33 µM (inactive)

**Q.** And the GI50 [6]?
**A.** 1.53 µM (inactive)

**Q.** What about the GI50 [7] of the same compound?
**A.** 1.71 µM (inactive)

**Q.** What about the GI50 [8] of the same compound?
**A.** 3.07 µM (inactive)

**Q.** What about the GI50 [9] of the same compound?
**A.** 6.82 µM (inactive)

**Q.** What about the GI50 [10] of the same compound?
**A.** 2.62 µM (inactive)

**Q.** And the GI50 [50]?
**A.** 1.87 µM (inactive)

**Q.** And the GI50 [11]?
**A.** 2.06 µM (inactive)

**Q.** And the GI50 [12]?
**A.** 1.75 µM (inactive)

**Q.** And the GI50 [13]?
**A.** 1.69 µM (inactive)

**Q.** What about the GI50 [14] of the same compound?
**A.** 1.48 µM (inactive)

**Q.** What about the GI50 [15] of the same compound?
**A.** 2.48 µM (inactive)

**Q.** And the GI50 [51]?
**A.** 1.85 µM (inactive)

**Q.** What about the GI50 [52] of the same compound?
**A.** 2.11 µM (inactive)

**Q.** What about the GI50 [16] of the same compound?
**A.** 2.67 µM (inactive)

**Q.** And the GI50 [53]?
**A.** 1.73 µM (inactive)

**Q.** What about the GI50 [18] of the same compound?
**A.** 1.72 µM (inactive)

**Q.** What about the GI50 [54] of the same compound?
**A.** 1.63 µM (inactive)

**Q.** What about the GI50 [19] of the same compound?
**A.** 1.89 µM (inactive)

**Q.** What about the GI50 [55] of the same compound?
**A.** 1.54 µM (inactive)

**Q.** What about the GI50 [56] of the same compound?
**A.** 2.7 µM (inactive)

**Q.** And the GI50 [21]?
**A.** 1.76 µM (inactive)

**Q.** What about the GI50 [22] of the same compound?
**A.** 1.84 µM

**Q.** And the GI50 [23]?
**A.** 1.67 µM (inactive)

**Q.** And the GI50 [57]?
**A.** 2.72 µM (inactive)

**Q.** What about the GI50 [24] of the same compound?
**A.** 4.41 µM (inactive)

**Q.** What about the GI50 [25] of the same compound?
**A.** 0.893 µM (active)

**Q.** And the GI50 [26]?
**A.** 2.17 µM (inactive)

**Q.** What about the GI50 [58] of the same compound?
**A.** 1.64 µM (inactive)

**Q.** And the GI50 [28]?
**A.** 2.13 µM (inactive)

**Q.** And the GI50 [29]?
**A.** 1.76 µM (inactive)

**Q.** What about the GI50 [30] of the same compound?
**A.** 2.4 µM (inactive)

**Q.** What about the GI50 [31] of the same compound?
**A.** 3.78 µM (inactive)

**Q.** What about the GI50 [59] of the same compound?
**A.** 1.63 µM (inactive)

**Q.** What about the GI50 [60] of the same compound?
**A.** 3.07 µM (inactive)

**Q.** What about the GI50 [61] of the same compound?
**A.** 6.59 µM (inactive)

**Q.** What about the GI50 [32] of the same compound?
**A.** 1.99 µM (inactive)

**Q.** And the GI50 [33]?
**A.** 2.96 µM (inactive)

**Q.** What about the GI50 [62] of the same compound?
**A.** 2.12 µM (inactive)

**Q.** What about the GI50 [36] of the same compound?
**A.** 1.66 µM (inactive)

**Q.** And the GI50 [37]?
**A.** 1.74 µM (inactive)

**Q.** What about the GI50 [38] of the same compound?
**A.** 2.24 µM (inactive)

**Q.** What about the GI50 [39] of the same compound?
**A.** 1.82 µM (inactive)

**Q.** What about the GI50 [40] of the same compound?
**A.** 2.56 µM (inactive)

**Q.** And the GI50 [41]?
**A.** 0.585 µM (active)

**Q.** And the GI50 [63]?
**A.** 1.35 µM (inactive)

**Q.** What about the GI50 [42] of the same compound?
**A.** 5.79 µM (inactive)

**Q.** And the GI50 [43]?
**A.** 2.16 µM (inactive)

**Q.** And the GI50 [64]?
**A.** 0.676 µM (active)

**Q.** And the GI50 [44]?
**A.** 1.71 µM (inactive)

**Q.** What about the GI50 [45] of the same compound?
**A.** 1.87 µM (inactive)
